From ChEMBL document CHEMBL1681651, “A broad spectrum anticancer nucleoside with selective toxicity against human colon cells in vitro” (2011)

Experiments:
Type in all cases: functional
K562 = test: Growth inhibition of human K562 cells assessed as cell growth at 10 uM after 48 hrs by SRB assay; settings: K562, 48 h, read-out: Activity
[1] = Growth inhibition of human […] cells assessed as cell growth at 10 uM after 48 hrs by SRB assay; settings: read-out: Activity
SNB-75 [2] = test: Growth inhibition of human SNB75 cells assessed as cell growth at 10 uM after 48 hrs by SRB assay; settings: SNB-75, 48 h, read-out: Activity
U-251 [3] = test: Growth inhibition of human U251 cells assessed as cell growth at 10 uM after 48 hrs by SRB assay; settings: U-251, 48 h, read-out: Activity
M14 [4] = test: Growth inhibition of human M14 cells assessed as cell growth at 10 uM after 48 hrs by SRB assay; settings: M14, 48 h, read-out: Activity
786-0 = test: Growth inhibition of human 786-0 cells assessed as cell growth at 10 uM after 48 hrs by SRB assay; settings: 786-0, 48 h, read-out: Activity
HOP-92 [5] = test: Growth inhibition of human HOP92 cells after 48 hrs by […] growth inhibition assay; settings: HOP-92, 48 h
NCI-H460 = test: Growth inhibition of human NCI-H460 cells after 48 hrs by […] growth inhibition assay; settings: NCI-H460, 48 h
M14 [6] = test: Growth inhibition of human M14 cells after 48 hrs by […] growth inhibition assay; settings: M14, 48 h
SK-MEL-28 = test: Growth inhibition of human SK-MEL-28 cells after 48 hrs by […] growth inhibition assay; settings: SK-MEL-28, 48 h, read-out: LC50 (the source's name)
SK-MEL-5 = test: Growth inhibition of human SK-MEL-5 cells after 48 hrs by […] growth inhibition assay; settings: SK-MEL-5, 48 h
UACC-257 = test: Growth inhibition of human UACC257 cells after 48 hrs by […] growth inhibition assay; settings: UACC-257, 48 h
U-251 [7] = test: Growth inhibition of human U251 cells after 48 hrs by […] growth inhibition assay; settings: U-251, 48 h
SK-OV-3 = test: Growth inhibition of human SKOV3 cells after 48 hrs by […] growth inhibition assay; settings: SK-OV-3, 48 h
MCF7 = test: Growth inhibition of human MCF7 cells after 48 hrs by […] growth inhibition assay; settings: MCF7, 48 h
SNB-75 [8] = test: Growth inhibition of human SNB75 cells assessed as cell growth at 0.1 uM after 48 hrs by SRB assay; settings: SNB-75, 48 h, read-out: Activity
RXF 393 [9] = test: Growth inhibition of human RXF393 cells assessed as cell growth at 0.1 uM after 48 hrs by SRB assay; settings: RXF 393, 48 h, read-out: Activity
TK-10 [10] = test: Growth inhibition of human TK10 cells assessed as cell growth at 0.1 uM after 48 hrs by SRB assay; settings: TK-10, 48 h, read-out: Activity
BT-549 = test: Growth inhibition of human BT549 cells assessed as cell growth at 10 uM after 48 hrs by SRB assay; settings: BT-549, 48 h, read-out: Activity
HOP-92 [11] = test: Growth inhibition of human HOP92 cells assessed as cell growth at 100 uM after 48 hrs by SRB assay; settings: HOP-92, 48 h, read-out: Activity
SF-295 = test: Growth inhibition of human SF295 cells assessed as cell growth at 100 uM after 48 hrs by SRB assay; settings: SF-295, 48 h, read-out: Activity
M14 [12] = test: Growth inhibition of human M14 cells assessed as cell growth at 100 uM after 48 hrs by SRB assay; settings: M14, 48 h, read-out: Activity
OVCAR-4 = test: Growth inhibition of human OVCAR4 cells assessed as cell growth at 100 uM after 48 hrs by SRB assay; settings: OVCAR-4, 48 h, read-out: Activity
TK-10 [13] = test: Growth inhibition of human TK10 cells assessed as cell growth at 100 uM after 48 hrs by SRB assay; settings: TK-10, 48 h, read-out: Activity
CCRF-CEM = test: Growth inhibition of human CCRF-CEM cells assessed as cell growth at 1 mM after 48 hrs by SRB assay; settings: read-out: Activity
HCT-116 = test: Growth inhibition of human HCT116 cells assessed as cell growth at 1 mM after 48 hrs by SRB assay; settings: HCT-116, 48 h, read-out: Activity
SK-MEL-2 = test: Growth inhibition of human SK-MEL-2 cells assessed as cell growth at 1 mM after 48 hrs by SRB assay; settings: SK-MEL-2, 48 h, read-out: Activity
RXF 393 [14] = test: Growth inhibition of human RXF393 cells assessed as cell growth at 1 mM after 48 hrs by SRB assay; settings: RXF 393, 48 h, read-out: Activity
EKVX = test: Growth inhibition of human EKVX cells assessed as cell growth at 1 uM after 48 hrs by SRB assay; settings: read-out: Activity
UACC-62 = test: Growth inhibition of human UACC62 cells assessed as cell growth at 1 uM after 48 hrs by SRB assay; settings: UACC-62, 48 h, read-out: Activity
[15] = read-out: LC50 (the source's name)
[16] = read-out: pLC50 (the source's name) (converted)

## CNC(=O)OC[C@H]1O[C@@H](n2cnc3c(NC(=O)Nc4ccccc4)ncnc32)[C@H](O[Si](C)(C)C(C)(C)C)[C@@H]1O[Si](C)(C)C(C)(C)C
K562
  growth at 10 µM: 75.4%
[1]
  growth at 10 µM: 88.1%
SNB-75 [2]
  growth at 10 µM: 76.6%
U-251 [3]
  growth at 10 µM: 86%
M14 [4]
  growth at 10 µM: 102%
786-0
  growth at 10 µM: 94.6%

## CNC(=O)NC[C@H]1O[C@@H](n2cnc3c(NC(=O)Nc4ccccc4)ncnc32)[C@H](O[Si](C)(C)C(C)(C)C)[C@@H]1O[Si](C)(C)C(C)(C)C
[1]
  growth at 10 µM: 98%
HOP-92 [5]; read-out: GI50
  GI50: 1.56 µM
HOP-92 [5]; [15]
  CC50: 97.6 µM
HOP-92 [5]; read-out: TGI
  TGI: 5.16 µM
HOP-92 [5]; read-out: pGI50 (converted)
  GI50: 1.55 µM
HOP-92 [5]; [16]
  CC50: 97.7 µM
HOP-92 [5]; read-out: pTGI (converted)
  TGI: 5.13 µM
NCI-H460; read-out: GI50
  GI50: 1.72 µM
NCI-H460; [15]
  CC50: 7.11 µM
NCI-H460; read-out: TGI
  TGI: 3.49 µM
NCI-H460; read-out: pGI50 (converted)
  GI50: 1.7 µM
NCI-H460; [16]
  CC50: 7.08 µM
NCI-H460; read-out: pTGI (converted)
  TGI: 3.47 µM
M14 [6]; read-out: GI50
  GI50: 4.33 µM
M14 [6]; [15]
  CC50: 93.8 µM
M14 [6]; read-out: TGI
  TGI: 18.5 µM
M14 [6]; read-out: pGI50 (converted)
  GI50: 4.37 µM
M14 [6]; [16]
  CC50: 93.3 µM
M14 [6]; read-out: pTGI (converted)
  TGI: 18.6 µM
SK-MEL-28
  CC50: 28.3 µM
SK-MEL-5; read-out: GI50
  GI50: 1.98 µM
SK-MEL-5; [15]
  CC50: 13.6 µM
SK-MEL-5; read-out: TGI
  TGI: 4.75 µM
SK-MEL-5; read-out: pGI50 (converted)
  GI50: 2 µM
SK-MEL-5; [16]
  CC50: 13.5 µM
SK-MEL-5; read-out: pTGI (converted)
  TGI: 4.79 µM
UACC-257; read-out: GI50
  GI50: 3.78 µM
UACC-257; [15]
  CC50: > 100 µM
UACC-257; read-out: TGI
  TGI: 20.2 µM
UACC-257; read-out: pGI50 (converted)
  GI50: 3.8 µM
UACC-257; [16]
  CC50: > 100 µM
UACC-257; read-out: pTGI (converted)
  TGI: 20 µM
U-251 [7]; read-out: GI50
  GI50: 2.96 µM
U-251 [7]; [15]
  CC50: > 100 µM
U-251 [7]; read-out: TGI
  TGI: 10.8 µM
U-251 [7]; read-out: pGI50 (converted)
  GI50: 2.95 µM
U-251 [7]; [16]
  CC50: > 100 µM
U-251 [7]; read-out: pTGI (converted)
  TGI: 10.7 µM
SK-OV-3; read-out: GI50
  GI50: 6.88 µM
SK-OV-3; [15]
  CC50: > 100 µM
SK-OV-3; read-out: TGI
  TGI: > 100 µM
SK-OV-3; read-out: pGI50 (converted)
  GI50: 6.92 µM
SK-OV-3; [16]
  CC50: > 100 µM
SK-OV-3; read-out: pTGI
  TGI: > 100 µM
MCF7; read-out: GI50
  GI50: 2.69 µM
MCF7; [15]
  CC50: > 100 µM
MCF7; read-out: TGI
  TGI: 19.3 µM
MCF7; read-out: pGI50 (converted)
  GI50: 2.69 µM
MCF7; [16]
  CC50: > 100 µM
MCF7; read-out: pTGI (converted)
  TGI: 19.5 µM
SNB-75 [8]
  growth at 0.1 µM: 94%
RXF 393 [9]
  growth at 0.1 µM: 98%
TK-10 [10]
  growth at 0.1 µM: 110%
SNB-75 [2]
  growth at 10 µM: 73%
U-251 [3]
  growth at 10 µM: 93%
M14 [4]
  growth at 10 µM: 105%
786-0
  growth at 10 µM: 110%
BT-549
  growth at 10 µM: 103%
HOP-92 [11]
  growth at 100 µM: -28%
SF-295
  growth at 100 µM: 7%
M14 [12]
  growth at 100 µM: 19%
OVCAR-4
  growth at 100 µM: 7%
TK-10 [13]
  growth at 100 µM: 14%
CCRF-CEM
  growth at 1000 µM: 4%
HCT-116
  growth at 1000 µM: -100%
SK-MEL-2
  growth at 1000 µM: -67%
RXF 393 [14]
  growth at 1000 µM: -77%
EKVX
  growth at 1 µM: 111%
UACC-62
  growth at 1 µM: 100%
